Measurements from the supplement of paper PMC13207355.
Where a name gives a salt, the structure may show the parent alone.

Tests used:
Details in all cases: exposure time: 72 h
E21 [1] = patient-derived glioblastoma stem cells of mesenchymal subtype; experiment: surviving fraction (nuclei count normalised to DMSO); higher = more cells surviving (less toxic)
E13 [2] = patient-derived glioblastoma stem cells of classical subtype; experiment: as above
FT3469 [3] = normal neural stem cell line; experiment: as above
E34 [4] = patient-derived glioblastoma stem cells of proneural subtype; experiment: as above
E28 [5] = patient-derived glioblastoma stem cells of classical subtype; experiment: as above
E31 [6] = patient-derived glioblastoma stem cells of proneural subtype; experiment: as above
E57 [7] = patient-derived glioblastoma stem cells of mesenchymal subtype; experiment: as above
E21 [8] = experiment: phenotypic distance (Euclidean, principal components) from DMSO controls (arbitrary units); higher = stronger morphological change
E13 [9] = experiment: as above
FT3469 [10] = experiment: as above
E34 [11] = experiment: as above
E28 [12] = experiment: as above
E31 [13] = experiment: as above
E57 [14] = experiment: as above
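Throughout, for phenotypic distance (Euclidean, principal components) from DMSO controls: cell Painting imaging in 384-well plates, CellProfiler features reduced to at least 20 principal components, Euclidean distance versus same-plate DMSO vehicle wells (0.1% v/v), median over six images per well.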
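Throughout, for surviving fraction (nuclei count normalised to DMSO): nuclei counted by high-content imaging of Hoechst-stained cells in laminin-coated 384-well plates, relative to 0.1% DMSO vehicle wells, with staurosporine as cell-death control.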

CCCCCCNC(=O)n1cc(F)c(=O)[nH]c1=O [Carmofur]
Details | phenotypic distance | surviving fraction
E13 [2], 4.1 nM | – | 0.99
E13 [2], 12.3 nM | – | 1.04
E13 [2], 37 nM | – | 0.909
E13 [2], 111.1 nM | – | 0.986
E13 [2], 333.3 nM | – | 0.963
E13 [2], 1000 nM | – | 1.05
E13 [2], 3000 nM | – | 0.877
E13 [9], 4.1 nM | 0.618 | –
E13 [9], 12.3 nM | 0.582 | –
E13 [9], 37 nM | 0.585 | –
E13 [9], 111.1 nM | 0.446 | –
E13 [9], 333.3 nM | 0.744 | –
E13 [9], 1000 nM | 0.529 | –
E13 [9], 3000 nM | 0.786 | –
E21 [1], 4.1 nM | – | 0.952
E21 [1], 12.3 nM | – | 0.91
E21 [1], 37 nM | – | 0.9
E21 [1], 111.1 nM | – | 0.957
E21 [1], 333.3 nM | – | 0.927
E21 [1], 1000 nM | – | 0.955
E21 [1], 3000 nM | – | 0.877
E21 [8], 4.1 nM | 0.484 | –
E21 [8], 12.3 nM | 0.616 | –
E21 [8], 37 nM | 0.756 | –
E21 [8], 111.1 nM | 0.906 | –
E21 [8], 333.3 nM | 0.649 | –
E21 [8], 1000 nM | 0.744 | –
E21 [8], 3000 nM | 1.09 | –
E28 [5], 4.1 nM | – | 1.02
E28 [5], 12.3 nM | – | 1.19
E28 [5], 37 nM | – | 0.916
E28 [5], 111.1 nM | – | 0.949
E28 [5], 333.3 nM | – | 1.1
E28 [5], 1000 nM | – | 1.26
E28 [5], 3000 nM | – | 0.731
E28 [12], 4.1 nM | 0.928 | –
E28 [12], 12.3 nM | 1.13 | –
E28 [12], 37 nM | 1.26 | –
E28 [12], 111.1 nM | 0.901 | –
E28 [12], 333.3 nM | 0.775 | –
E28 [12], 1000 nM | 1.21 | –
E28 [12], 3000 nM | 1.55 | –
E31 [6], 4.1 nM | – | 0.889
E31 [6], 12.3 nM | – | 0.903
E31 [6], 37 nM | – | 0.826
E31 [6], 111.1 nM | – | 0.961
E31 [6], 333.3 nM | – | 0.894
E31 [6], 1000 nM | – | 1.07
E31 [6], 3000 nM | – | 0.875
E31 [13], 4.1 nM | 0.818 | –
E31 [13], 12.3 nM | 0.955 | –
E31 [13], 37 nM | 1.02 | –
E31 [13], 111.1 nM | 0.782 | –
E31 [13], 333.3 nM | 0.838 | –
E31 [13], 1000 nM | 0.811 | –
E31 [13], 3000 nM | 0.874 | –
E34 [4], 4.1 nM | – | 0.974
E34 [4], 12.3 nM | – | 0.829
E34 [4], 37 nM | – | 0.841
E34 [4], 111.1 nM | – | 0.884
E34 [4], 333.3 nM | – | 0.928
E34 [4], 1000 nM | – | 1
E34 [4], 3000 nM | – | 0.889
E34 [11], 4.1 nM | 3.48 | –
E34 [11], 12.3 nM | 1.19 | –
E34 [11], 37 nM | 0.943 | –
E34 [11], 111.1 nM | 1.13 | –
E34 [11], 333.3 nM | 0.621 | –
E34 [11], 1000 nM | 0.627 | –
E34 [11], 3000 nM | 0.693 | –
E57 [7], 4.1 nM | – | 0.882
E57 [7], 12.3 nM | – | 0.903
E57 [7], 37 nM | – | 0.919
E57 [7], 111.1 nM | – | 0.922
E57 [7], 333.3 nM | – | 1.02
E57 [7], 1000 nM | – | 0.954
E57 [7], 3000 nM | – | 0.85
E57 [14], 4.1 nM | 0.989 | –
E57 [14], 12.3 nM | 0.918 | –
E57 [14], 37 nM | 0.681 | –
E57 [14], 111.1 nM | 0.66 | –
E57 [14], 333.3 nM | 0.538 | –
E57 [14], 1000 nM | 0.74 | –
E57 [14], 3000 nM | 1.04 | –
FT3469 [3], 4.1 nM | – | 0.763
FT3469 [3], 12.3 nM | – | 0.995
FT3469 [3], 37 nM | – | 0.811
FT3469 [3], 111.1 nM | – | 0.832
FT3469 [3], 333.3 nM | – | 0.955
FT3469 [3], 1000 nM | – | 0.915
FT3469 [3], 3000 nM | – | 0.649
FT3469 [10], 4.1 nM | 0.889 | –
FT3469 [10], 12.3 nM | 2.05 | –
FT3469 [10], 37 nM | 1.22 | –
FT3469 [10], 111.1 nM | 3.24 | –
FT3469 [10], 333.3 nM | 0.832 | –
FT3469 [10], 1000 nM | 0.844 | –
FT3469 [10], 3000 nM | 1.47 | –

Cc1c(-c2ccc(-c3ccccc3F)cc2)nc2ccc(F)cc2c1C(=O)O [Brequinar sodium salt hydrate]
Details | phenotypic distance | surviving fraction
E13 [2], 4.1 nM | – | 1.01
E13 [2], 12.3 nM | – | 1.08
E13 [2], 37 nM | – | 1.03
E13 [2], 111.1 nM | – | 0.858
E13 [2], 333.3 nM | – | 0.726
E13 [2], 1000 nM | – | 0.615
E13 [2], 3000 nM | – | 0.471
E13 [9], 4.1 nM | 0.5 | –
E13 [9], 12.3 nM | 0.844 | –
E13 [9], 37 nM | 0.761 | –
E13 [9], 111.1 nM | 1.8 | –
E13 [9], 333.3 nM | 4.41 | –
E13 [9], 1000 nM | 4.43 | –
E13 [9], 3000 nM | 5.02 | –
E21 [1], 4.1 nM | – | 0.951
E21 [1], 12.3 nM | – | 1.04
E21 [1], 37 nM | – | 0.918
E21 [1], 111.1 nM | – | 0.817
E21 [1], 333.3 nM | – | 0.699
E21 [1], 1000 nM | – | 0.649
E21 [1], 3000 nM | – | 0.444
E21 [8], 4.1 nM | 0.972 | –
E21 [8], 12.3 nM | 0.391 | –
E21 [8], 37 nM | 1.22 | –
E21 [8], 111.1 nM | 0.607 | –
E21 [8], 333.3 nM | 1.48 | –
E21 [8], 1000 nM | 2.5 | –
E21 [8], 3000 nM | 3.68 | –
E28 [5], 4.1 nM | – | 1.13
E28 [5], 12.3 nM | – | 1.03
E28 [5], 37 nM | – | 0.963
E28 [5], 111.1 nM | – | 0.807
E28 [5], 333.3 nM | – | 0.606
E28 [5], 1000 nM | – | 0.42
E28 [5], 3000 nM | – | 0.344
E28 [12], 4.1 nM | 1.07 | –
E28 [12], 12.3 nM | 0.503 | –
E28 [12], 37 nM | 0.823 | –
E28 [12], 111.1 nM | 1.12 | –
E28 [12], 333.3 nM | 1.2 | –
E28 [12], 1000 nM | 2.26 | –
E28 [12], 3000 nM | 2.28 | –
E31 [6], 4.1 nM | – | 1.1
E31 [6], 12.3 nM | – | 1
E31 [6], 37 nM | – | 0.96
E31 [6], 111.1 nM | – | 1.13
E31 [6], 333.3 nM | – | 0.724
E31 [6], 1000 nM | – | 0.392
E31 [6], 3000 nM | – | 0.407
E31 [13], 4.1 nM | 0.556 | –
E31 [13], 12.3 nM | 0.921 | –
E31 [13], 37 nM | 0.734 | –
E31 [13], 111.1 nM | 0.725 | –
E31 [13], 333.3 nM | 2.59 | –
E31 [13], 1000 nM | 3.28 | –
E31 [13], 3000 nM | 3.43 | –
E34 [4], 4.1 nM | – | 0.811
E34 [4], 12.3 nM | – | 0.864
E34 [4], 37 nM | – | 0.96
E34 [4], 111.1 nM | – | 1.01
E34 [4], 333.3 nM | – | 0.909
E34 [4], 1000 nM | – | 0.888
E34 [4], 3000 nM | – | 0.794
E34 [11], 4.1 nM | 0.701 | –
E34 [11], 12.3 nM | 0.581 | –
E34 [11], 37 nM | 0.513 | –
E34 [11], 111.1 nM | 0.804 | –
E34 [11], 333.3 nM | 1 | –
E34 [11], 1000 nM | 1.62 | –
E34 [11], 3000 nM | 2.87 | –
E57 [7], 4.1 nM | – | 0.969
E57 [7], 12.3 nM | – | 0.999
E57 [7], 37 nM | – | 0.871
E57 [7], 111.1 nM | – | 0.67
E57 [7], 333.3 nM | – | 0.458
E57 [7], 1000 nM | – | 0.372
E57 [7], 3000 nM | – | 0.325
E57 [14], 4.1 nM | 1.62 | –
E57 [14], 12.3 nM | 0.514 | –
E57 [14], 37 nM | 1.88 | –
E57 [14], 111.1 nM | 3.44 | –
E57 [14], 333.3 nM | 5.23 | –
E57 [14], 1000 nM | 6.97 | –
E57 [14], 3000 nM | 6.84 | –
FT3469 [3], 4.1 nM | – | 0.883
FT3469 [3], 12.3 nM | – | 0.941
FT3469 [3], 37 nM | – | 0.996
FT3469 [3], 111.1 nM | – | 1
FT3469 [3], 333.3 nM | – | 0.858
FT3469 [3], 1000 nM | – | 0.742
FT3469 [3], 3000 nM | – | 0.65
FT3469 [10], 4.1 nM | 0.696 | –
FT3469 [10], 12.3 nM | 0.439 | –
FT3469 [10], 37 nM | 0.863 | –
FT3469 [10], 111.1 nM | 0.612 | –
FT3469 [10], 333.3 nM | 1.17 | –
FT3469 [10], 1000 nM | 1.76 | –
FT3469 [10], 3000 nM | 1.88 | –
